Experimental data taken from PubChem BioAssay AID330 (DTP/NCI, 2004).
“And” between values parts separate entries of the source, which are not always exact repeats. Equal values may be shown once. Inconclusive results and toxic doses are left out.

Test system: P388 leukemia ip, CD2F1 mice, survival T/C
Assay: NCI In Vivo Anticancer Drug Screen. Data for tumor model P388 Leukemia (intraperitoneal) in CD2F1 (CDF1) mice
Conditions: endpoint: median survival time, higher = longer survival
How it was run: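 Mice carrying the transplanted tumor received test compound or vehicle. Survival was recorded in each group, and the value is the treated-group measurement divided by that of the vehicle-treated control group.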

[1] = dose: 60.0 mg/kg/injection, schedule: Q01DX005 (ip), vehicle: Klucel (hydroxypropylcellulose) (HPC)
[2] = dose: 120.0 mg/kg/injection, schedule: Q01DX005 (ip), vehicle: Klucel (hydroxypropylcellulose) (HPC)
[3] = dose: 240.0 mg/kg/injection, schedule: Q01DX005 (ip), vehicle: Klucel (hydroxypropylcellulose) (HPC)
[4] = dose: 100.0 mg/kg/injection, schedule: Q01DX001 (ip), vehicle: saline
[5] = dose: 50.0 mg/kg/injection, schedule: Q01DX005 (ip), vehicle: saline
[6] = dose: 100.0 mg/kg/injection, schedule: Q01DX005 (ip), vehicle: saline
[7] = dose: 200.0 mg/kg/injection, schedule: Q01DX005 (ip), vehicle: saline
[8] = dose: 200.0 mg/kg/injection, schedule: Q01DX001 (ip), vehicle: saline
[9] = dose: 400.0 mg/kg/injection, schedule: Q01DX001 (ip), vehicle: saline

CCC(C)(OC(C)=O)C(=O)OC1C(=O)OC2CC3C(C)=CC(O)C(O)C3(C)C3C4(O)OCC23C1C(C)C4O (stereo not drawn)
T/C (dose: 0.25 mg/kg/injection, schedule: Q01DX009 (ip), vehicle: saline + alcohol): 103 % of control | T/C (dose: 0.5 mg/kg/injection, schedule: Q01DX009 (ip), vehicle: saline + alcohol): 96 % of control | T/C (dose: 1.0 mg/kg/injection, schedule: Q01DX009 (ip), vehicle: saline + alcohol): 96 % of control | T/C (dose: 2.0 mg/kg/injection, schedule: Q01DX009 (ip), vehicle: saline + alcohol): 96 % of control | T/C (dose: 4.0 mg/kg/injection, schedule: Q01DX009 (ip), vehicle: saline + alcohol): 99 % of control

COc1cccc2c1C(=O)c1c(O)c3c(c(O)c1C2=O)C[C@@](O)(C(=O)CO)C[C@@H]3OC1CC(NC=O)C(O)C(C)O1 (stereo partly drawn)
T/C (dose: 1.56 mg/kg/injection, schedule: Q01DX009 (ip), vehicle: Klucel (hydroxypropylcellulose) (HPC)): 95 % of control | T/C (dose: 7.4 mg/kg/injection, schedule: Q01DX009 (ip), vehicle: other): 163 % of control | T/C (dose: 11.0 mg/kg/injection, schedule: Q01DX009 (ip), vehicle: other): 157 % of control | T/C (dose: 16.5 mg/kg/injection, schedule: Q01DX009 (ip), vehicle: other): 163 % of control | T/C (dose: 25.0 mg/kg/injection, schedule: Q01DX009 (ip), vehicle: other): 192 % of control | T/C (dose: 37.5 mg/kg/injection, schedule: Q01DX009 (ip), vehicle: other): 201 % of control | T/C (dose: 50.0 mg/kg/injection, schedule: Q01DX009 (ip), vehicle: Klucel (hydroxypropylcellulose) (HPC)): 121 % of control

CCOC(=O)c1cc(=O)c2c(OC)ccc(Cl)c2[nH]1
T/C [1]: 100 % of control | T/C [2]: 99 % of control | T/C [3]: 96 % of control

C[Si](C)(C)c1cc[c]([Sn]([CH3])([CH3])[CH3])cc1
T/C (dose: 50.0 mg/kg/injection, schedule: Q01DX009 (ip), vehicle: saline): 105 % of control | T/C (dose: 100.0 mg/kg/injection, schedule: Q01DX009 (ip), vehicle: saline): 101 % of control | T/C (dose: 200.0 mg/kg/injection, schedule: Q01DX009 (ip), vehicle: saline): 93 % of control

CC1(C)CNC(=O)C2=C(O1)C(=O)OC2
T/C (dose: 100.0 mg/kg/injection, schedule: Q04DX002 (ip), vehicle: saline with Tween-80): 100 % of control | T/C (dose: 200.0 mg/kg/injection, schedule: Q04DX002 (ip), vehicle: saline with Tween-80): 100 % of control | T/C (dose: 400.0 mg/kg/injection, schedule: Q04DX002 (ip), vehicle: saline with Tween-80): 103 % of control

CC1CCCC(CC2CCCC[N-]2)[N-]1.CC1CCCC(CC2CCCC[N-]2)[N-]1.[Ni+2].[O-][Cl+3]([O-])([O-])O (stereo not drawn)
T/C (dose: 25.0 mg/kg/injection, schedule: Q01DX001 (ip), vehicle: saline): 95 % of control | T/C (dose: 50.0 mg/kg/injection, schedule: Q01DX001 (ip), vehicle: saline): 94 % of control | T/C [4]: 108 % of control and 95 % of control

CC(O)C1CCNCC1 (stereo not drawn)
T/C [5]: 102 % of control | T/C [6]: 97 % of control

O=C1CSC(c2cccc(O)c2)N1c1nncs1 (stereo not drawn)
T/C (dose: 60.0 mg/kg/injection, schedule: Q01DX005 (ip), vehicle: saline with Tween-80): 114 % of control | T/C (dose: 120.0 mg/kg/injection, schedule: Q01DX005 (ip), vehicle: saline with Tween-80): 107 % of control | T/C (dose: 240.0 mg/kg/injection, schedule: Q01DX005 (ip), vehicle: saline with Tween-80): 95 % of control

CC1=CC(=N/Cl)/C=CC/1=N/Cl
T/C [5]: 109 % of control | T/C [6]: 111 % of control | T/C [7]: 114 % of control

O=C(N/N=C/c1ccc(Cl)cc1)c1cc2ccccc2oc1=O
T/C [4]: 100 % of control | T/C [8]: 103 % of control | T/C [9]: 105 % of control

Cc1ccc(SSCCN)cc1
T/C (dose: 12.5 mg/kg/injection, schedule: Q01DX005 (ip), vehicle: saline): 104 % of control | T/C (dose: 25.0 mg/kg/injection, schedule: Q01DX005 (ip), vehicle: saline): 104 % of control | T/C [5]: 108 % of control and 110 % of control

C/C(=C\c1ccccc1)c1ccccn1
T/C [5]: 99 % of control | T/C [6]: 105 % of control | T/C [7]: 113 % of control

O=C1/C(=C/c2ccc3c(c2)OCO3)C2CCC(N2)/C1=C\c1ccc2c(c1)OCO2
T/C (dose: 50.0 mg/kg/injection, schedule: Q01DX001 (ip), vehicle: Klucel (hydroxypropylcellulose) (HPC)): 103 % of control | T/C (dose: 100.0 mg/kg/injection, schedule: Q01DX001 (ip), vehicle: Klucel (hydroxypropylcellulose) (HPC)): 96 % of control | T/C (dose: 200.0 mg/kg/injection, schedule: Q01DX001 (ip), vehicle: Klucel (hydroxypropylcellulose) (HPC)): 96 % of control

[Cr+6].[NH-]CCC[NH-].[NH-]CCC[NH-].[NH-]CCC[NH-]
T/C [8]: 95 % of control | T/C [9]: 90 % of control

C=C1C(=O)OC2C1C(OC(=O)/C(C)=C\C)CC(C)=C1C(=O)C3OC3(C)C12O (stereo not drawn)
T/C (dose: 12.5 mg/kg/injection, schedule: Q01DX005 (ip), vehicle: saline + alcohol): 115 % of control | T/C (dose: 25.0 mg/kg/injection, schedule: Q01DX005 (ip), vehicle: saline + alcohol): 116 % of control | T/C (dose: 50.0 mg/kg/injection, schedule: Q01DX005 (ip), vehicle: saline + alcohol): 115 % of control

CC1CN(S(=O)(=O)c2cc(Cl)c(Oc3ccc([N+](=O)[O-])cc3Cl)c(Cl)c2)CC(C)O1 (stereo not drawn)
T/C [1]: 106 % of control | T/C [2]: 101 % of control | T/C [3]: 97 % of control

COC(=O)Cn1/c(=N\N=C(/C)c2ccc(OC)cc2)sc2ccccc21
T/C (dose: 100.0 mg/kg/injection, schedule: Q01DX001 (ip), vehicle: saline with Tween-80): 101 % of control | T/C (dose: 200.0 mg/kg/injection, schedule: Q01DX001 (ip), vehicle: saline with Tween-80): 117 % of control | T/C (dose: 400.0 mg/kg/injection, schedule: Q01DX001 (ip), vehicle: saline with Tween-80): 92 % of control

C=C1CC2(CCS(=O)(=O)c3ccccc32)OC1=O (stereo not drawn)
T/C (dose: 12.5 mg/kg/injection, schedule: Q04DX002 (ip), vehicle: saline with Tween-80): 105 % of control | T/C (dose: 25.0 mg/kg/injection, schedule: Q04DX002 (ip), vehicle: saline with Tween-80): 109 % of control | T/C (dose: 50.0 mg/kg/injection, schedule: Q04DX002 (ip), vehicle: saline with Tween-80): 116 % of control

CC[n+]1c(-c2ccccc2)c2cc(N)ccc2c2ccc(N)cc21 (tested in a mixture with another compound)
T/C (dose: 5.0 mg/kg/injection, schedule: Q01DX005 (ip), vehicle: other): 102 % of control | T/C (dose: 10.0 mg/kg/injection, schedule: Q01DX005 (ip), vehicle: other): 112 % of control | T/C (dose: 20.0 mg/kg/injection, schedule: Q01DX005 (ip), vehicle: other): 102 % of control | T/C (dose: 40.0 mg/kg/injection, schedule: Q01DX005 (ip), vehicle: other): 109 % of control | T/C (dose: 80.0 mg/kg/injection, schedule: Q01DX005 (ip), vehicle: other): 119 % of control

COc1ccc(S(=O)(=O)N/N=C(/C(=O)O)c2ccccc2)cc1
T/C (dose: 12.5 mg/kg/injection, schedule: Q01DX005 (ip), vehicle: saline with Tween-80): 95 % of control | T/C (dose: 25.0 mg/kg/injection, schedule: Q01DX005 (ip), vehicle: saline with Tween-80): 94 % of control | T/C (dose: 50.0 mg/kg/injection, schedule: Q01DX005 (ip), vehicle: saline with Tween-80): 106 % of control | T/C (dose: 100.0 mg/kg/injection, schedule: Q01DX005 (ip), vehicle: saline with Tween-80): 100 % of control | T/C (dose: 200.0 mg/kg/injection, schedule: Q01DX005 (ip), vehicle: saline with Tween-80): 109 % of control and 112 % of control | T/C (dose: 400.0 mg/kg/injection, schedule: Q01DX005 (ip), vehicle: saline with Tween-80): 109 % of control

COC1OC2COC(c3ccccc3)OC2C(O)C1O (stereo not drawn)
T/C (dose: 50.0 mg/kg/injection, schedule: Q01DX009 (ip), vehicle: saline with Tween-80): 100 % of control | T/C (dose: 100.0 mg/kg/injection, schedule: Q01DX009 (ip), vehicle: saline with Tween-80): 107 % of control | T/C (dose: 200.0 mg/kg/injection, schedule: Q01DX009 (ip), vehicle: saline with Tween-80): 105 % of control | T/C (dose: 400.0 mg/kg/injection, schedule: Q01DX009 (ip), vehicle: saline with Tween-80): 107 % of control

CCC1=C[C@@H]2C[C@](C(=O)OC)(c3cc4c(cc3OC)N(C)[C@H]3[C@@](O)(C(=O)OC)[C@H](OC(C)=O)[C@]5(CC)C=CCN6CC[C@]43[C@@H]65)c3[nH]c4ccccc4c3CCN(C1)[C@@H]2O
T/C (dose: 2.5 mg/kg/injection, schedule: Q01DX001 (ip), vehicle: water): 117 % of control | T/C (dose: 20.0 mg/kg/injection, schedule: Q01DX001 (ip), vehicle: water): 153 % of control and 159 % of control | T/C (dose: 40.0 mg/kg/injection, schedule: Q01DX001 (ip), vehicle: water): 161 % of control and 170 % of control | T/C (dose: 80.0 mg/kg/injection, schedule: Q01DX001 (ip), vehicle: water): 180 % of control | T/C (dose: 160.0 mg/kg/injection, schedule: Q01DX001 (ip), vehicle: water): 93 % of control
